Reference: US8728797B2, “Yeast membrane protein expression system and its application in drug screening” (priority 2001, dated 2014)

How the values were obtained:
AD-CDR1 (Cdr1p) = experiment: Disk diffusion assay, AD-CDR1; type: cell-based, S. cerevisiae; settings: AD-pABC as negative control, 30° C., 48 h
Protocol: (§1) The cells were spread on CSM-agar plates and exposed to the drugs or chemicals applied to filter disks and incubated at 30° C. for 48 h. The amounts of individual drugs are given in the Materials and Methods section of Example 3. Rhodamine 6G and rhodamine 123 were dissolved in ethanol and the other antifungals were dissolved in DMSO.
(§2) Drug susceptibility was measured using disk assays on CSM-URA plates (containing 1.5% w/v agar). Yeast cells (200 μl ml of 5×10^6 cells/ml) were spread on the plates. 10 μl of drug solution or solvent control were spotted onto sterile Whatman paper disks on the pre-spread plates. The following amounts (nmoles) of drugs were applied to individual disks: fluconazole, 633 (Pfizer Ltd., Sandwich, Kent, United Kingdom); itraconazole, 0.23 (Janssen); miconazole, 0.42 (Janssen); cycloheximide, 0.71 (Sigma); rhodamine 6G, 100 (Sigma, Penrose, Auckland, N. Z.); rhodamine 123, 125 (Sigma); cerulenin 4.5 (Sigma); 5-flucytosine 100 (Sigma); amphotericin B, 97 (E. R. Squibb & Sons, Princeton, N.J.); nystatin 65 (Sigma). Agar plates were incubated at 30° C. for 48 h or until clear growth inhibition zones were visible.

AD-PDR5 (Pdr5p) = experiment: Disk diffusion assay, AD-PDR5; type: cell-based, S. cerevisiae; settings: AD-pABC as negative control, 30° C., 48 h
Protocol: as §1, §2

AD-BEN^R (Ben^Rp) = experiment: Disk diffusion assay, AD-BEN^R; type: cell-based, S. cerevisiae; settings: AD-pABC as negative control, 30° C., 48 h
Protocol: as §1, §2

AD-ERG11 (Erg11p) = experiment: Disk diffusion assay, AD-ERG11; type: cell-based, S. cerevisiae; settings: AD-pABC as negative control, 30° C., 48 h
Protocol: as §1, §2

[1] = test system: S. cerevisiae AD1002 (CDR1+); experiment: Disk drug susceptibility assay, AD1002 compared with parental strain; type: cell-based; settings: drug on filter disks, 30° C., 48 h
Protocol: (§3) S. cerevisiae AD1-8u^− (CDR1−) or AD1002 (CDR1+) cells (5×10^5) seeded in top agar on CSM agar plates (containing uracil for AD1-8u^−) were exposed to drugs or chemicals applied to filter disks and incubated at 30° C. for 48 h. The sensitivity of AD1002 to drugs or chemicals was unaffected by supplementing the medium with uridine (0.02% w/v). Amounts of individual drugs applied to disks are given in the Materials and methods section of Example 2, below.
(§4) Drug susceptibility was measured using disk assays on CSM-URA plates (containing 1.5% w/v agar). Plates were seeded with yeast cells suspended in top agar (5 ml, 10^5 cells/ml). For the uracil-dependent parental strain, agar was supplemented with 0.02% uridine. Five microliters of drug solution or solvent control were spotted onto sterile Whatman paper disks on the top agar. The following amounts (nmoles) of drugs were applied to individual disks: fluconazole, 6.5 (Pfizer Ltd., Sandwich, Kent, United Kingdom); ketoconazole, 0.094 (Janssen Research Foundation, Beerse, Belgium); itraconazole, 0.35 (Janssen); miconazole, 0.084 (Janssen); amphotericin B, 54 (E. R. Squibb & Sons, Princeton, N.J.); rhodamine 6G, 10 (Sigma, Penrose, Auckland, N. Z.); rhodamine 123, 50 (Sigma); trifluoperazine 100 (Sigma); benomyl, 10 (Nippon Roche); cycloheximide, 5 (Sigma); carbonyl cyanide p-chlorophenylhydrazone, 490 (CCCP, Sigma); oligomycin, 10 (Sigma); nigericin, 100 (Sigma); tamoxifen, 25 (Sigma); naftifine, 50 (Novartis); quinidine, 500 (Sigma); valinomycin, 20 (Sigma); verapamil, 1000 (Sigma). Agar plates were incubated at 30° C. for 48 h or until clear growth inhibition zones were visible.

[2] = test system: S. cerevisiae AD1-8u^− (CDR1−); experiment: Disk drug susceptibility assay, parental strain; type: cell-based; settings: at the concentrations used; 30° C., 48 h
Protocol: as §3, §4

Cdr1p ATPase = target: T1, Cdr1p ATPase (Candida albicans, UniProt P43071, E1416A/I916V/K1177E/L1021S/Q214E/T842S/Y427F); experiment: Oligomycin sensitive ATPase/NTPase activity of AD1002 plasma membranes; type: biochemical, C. albicans
T1 construct: expressed in transfected cells; host or cells: S. cerevisiae AD1-8u- with pKEN1002 integrated at the PDR5 locus (strain AD1002), plasma membrane fraction
Protocol: Membrane fractions were isolated from S. cerevisiae AD1002 (▪) or parental AD1-8u^− cells (●). ATPase assays were carried out at 30° C. for 30 min, as described in Materials and methods for Example 2. The oligomycin-sensitive activity was determined as the difference in ATPase activity in the presence and absence of 20 μM oligomycin. […] The results are the means (+/−SD) of four determinations carried out on two membrane preparations.
(B) Inhibition profile with KN20 on the oligomycin-sensitive Cdr1p ATPase activity of plasma membranes from AD1002 minus the oligomycin-sensitive ATPase activity of plasma membranes from the isogenic AD1-8u^− strain.
Yeast were grown in YEPD, pH 5.5 at 30° C. until they reached late-exponential phase of growth (OD600 nm=7), washed twice in ice-cold distilled water, and incubated on ice for 30 min to minimize glucose-stimulated Pma1p activity. Cells were resuspended in homogenising medium (50 mM Tris pH 7.5, 2 mM EDTA and 1 mM phenylmethylsulfonyl fluoride) and disrupted using a Braun Homogeniser. Cell debris and unbroken cells were removed by centrifuging at 2,000×g at 4° C. for 10 min. A crude membrane fraction was isolated from the cell-free supernatant by centrifuging at 30,000×g at 4° C. for 45 min. Plasma membranes were prepared by centrifugation of the supernatant obtained after selective precipitation of mitochondria at pH 5.2 as described previously (Goffeau, A. and Dufour, J. P., 1988). The plasma membranes were resuspended in 10 mM Tris pH 7.0, 0.5 mM EDTA and 20% [v/v] glycerol and stored at −80° C. Protein was determined using a micro-Bradford (Bio-Rad Laboratories, Hercules, Calif. [Bradford, M. M., 1976]) assay with gamma-globulin as standard. Nucleotide triphosphatase activity was measured by incubating the plasma membrane fractions (10 μg) at 30° C. in a final volume of 120 μl containing 6 mM NTP, 7 mM MgSO4 in 59 mM MES-Tris buffer pH 6.0-8.0. To eliminate possible contributions from nonspecific phosphatases, vacuolar, or mitochondrial ATPases, 0.2 mM ammonium molybdate, 50 mM KNO3 and 10 mM NaN3, respectively, were included in assays (Monk B C, et al, 1991). Other ATPase inhibitors (20 μM oligomycin, 20 μM aurovertin B or 100 μM vanadate were added to the reaction where indicated. After 30 min the reaction was stopped by adding 130 μl of a solution containing 1% (w/v) SDS, 0.6 M H2SO4, 1.2% (w/v) ammonium molybdate and 1.6% (w/v) ascorbic acid. Inorganic phosphate released from NTPs was measured at 750 nm after 10 min incubation at room temperature.

T1 sequence (P43071 whole entry Q214E/Y427F/T842S/I916V/L1021S/K1177E/E1416A): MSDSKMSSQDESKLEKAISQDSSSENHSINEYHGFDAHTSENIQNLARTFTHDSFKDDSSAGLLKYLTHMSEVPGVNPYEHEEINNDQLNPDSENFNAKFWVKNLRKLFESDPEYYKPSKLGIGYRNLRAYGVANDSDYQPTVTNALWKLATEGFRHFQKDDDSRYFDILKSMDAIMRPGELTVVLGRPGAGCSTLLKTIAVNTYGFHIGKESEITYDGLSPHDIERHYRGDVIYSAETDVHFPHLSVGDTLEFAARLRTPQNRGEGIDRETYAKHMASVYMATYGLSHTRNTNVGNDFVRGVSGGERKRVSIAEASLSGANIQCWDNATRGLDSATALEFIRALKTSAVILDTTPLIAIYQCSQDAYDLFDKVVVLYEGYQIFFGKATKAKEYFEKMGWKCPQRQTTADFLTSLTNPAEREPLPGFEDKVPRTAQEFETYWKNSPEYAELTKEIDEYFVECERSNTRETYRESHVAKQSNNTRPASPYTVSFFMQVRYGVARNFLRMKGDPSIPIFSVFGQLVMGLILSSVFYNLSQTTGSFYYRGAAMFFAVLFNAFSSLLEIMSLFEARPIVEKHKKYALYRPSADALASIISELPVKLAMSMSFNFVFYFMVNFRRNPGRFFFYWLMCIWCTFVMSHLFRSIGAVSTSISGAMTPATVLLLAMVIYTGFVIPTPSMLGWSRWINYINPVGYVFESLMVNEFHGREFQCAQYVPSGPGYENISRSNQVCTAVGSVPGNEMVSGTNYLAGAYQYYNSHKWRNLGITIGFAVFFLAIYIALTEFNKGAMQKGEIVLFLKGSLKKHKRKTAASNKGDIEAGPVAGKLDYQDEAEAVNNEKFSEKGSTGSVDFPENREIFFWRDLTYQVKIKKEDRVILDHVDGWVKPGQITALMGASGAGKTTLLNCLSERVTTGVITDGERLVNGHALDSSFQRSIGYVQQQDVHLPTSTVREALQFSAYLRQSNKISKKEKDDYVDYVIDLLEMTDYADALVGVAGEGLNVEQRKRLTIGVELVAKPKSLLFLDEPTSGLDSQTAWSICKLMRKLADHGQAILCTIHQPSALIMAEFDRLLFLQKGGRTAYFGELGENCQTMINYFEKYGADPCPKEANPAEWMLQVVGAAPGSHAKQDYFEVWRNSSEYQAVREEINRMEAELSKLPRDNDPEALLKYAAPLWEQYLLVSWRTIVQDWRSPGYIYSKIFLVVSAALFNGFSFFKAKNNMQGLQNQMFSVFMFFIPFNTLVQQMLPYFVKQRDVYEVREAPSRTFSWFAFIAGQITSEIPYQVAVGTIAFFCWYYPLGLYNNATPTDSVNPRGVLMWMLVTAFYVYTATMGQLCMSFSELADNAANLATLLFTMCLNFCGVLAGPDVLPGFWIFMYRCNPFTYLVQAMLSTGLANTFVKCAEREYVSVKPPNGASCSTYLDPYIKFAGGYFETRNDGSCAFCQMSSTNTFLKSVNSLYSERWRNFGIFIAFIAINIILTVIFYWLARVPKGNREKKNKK

Row | Compound | resistance/sensitivity in disk diffusion assay (AD-CDR1 (Cdr1p)) | resistance/sensitivity in disk diffusion assay (AD-PDR5 (Pdr5p)) | resistance/sensitivity in disk diffusion assay (AD-BEN^R (Ben^Rp)) | resistance/sensitivity in disk diffusion assay (AD-ERG11 (Erg11p)) | resistance of AD1002 relative to parental strain in disk assay [1] | further results
1 | Nc1[nH]c(=O)ncc1F [flucytosine] | sensitivities | sensitivities | sensitive | susceptible |  | 
2 | C[C@@H]1C[C@@H]([C@H](O)CC2CC(=O)NC(=O)C2)C(=O)[C@@H](C)C1 [cycloheximide] | resistances | resistances | resistant | susceptible | confers resistance to growth inhibition | 
3 | rhodamine 6G | resistances | resistances | fully sensitive | susceptible | clear resistance | 
4 | COc1ccc(CCN(C)CCCC(C#N)(c2ccc(OC)c(OC)c2)C(C)C)cc1OC (centres unmarked) [verapamil] |  |  |  |  | confers resistance to growth inhibition | 
5 | CC(C)[C@@H]1NC(=O)[C@H](C)OC(=O)[C@@H](C(C)C)NC(=O)[C@@H](C(C)C)OC(=O)[C@H](C(C)C)NC(=O)[C@H](C)OC(=O)[C@@H](C(C)C)NC(=O)[C@@H](C(C)C)OC(=O)[C@H](C(C)C)NC(=O)[C@H](C)OC(=O)[C@@H](C(C)C)NC(=O)[C@@H](C(C)C)OC1=O [valinomycin] |  |  |  |  |  | sensitivity of parental strain AD1-8u^− in disk assay [2]: resistant
6 | rhodamine 123 | resistances | resistances | fully sensitive | susceptible | clear resistance | 
7 | C=C[C@H]1C[N@@]2CC[C@H]1C[C@@H]2[C@@H](O)c1ccnc2ccc(OC)cc12 [quinidine] |  |  |  |  |  | sensitivity of parental strain AD1-8u^− in disk assay [2]: resistant
8 | CCCCNC(=O)n1c(NC(=O)OC)nc2ccccc21 [benomyl] |  |  |  |  |  | sensitivity of parental strain AD1-8u^− in disk assay [2]: resistant
9 | CN(C/C=C/c1ccccc1)Cc1cccc2ccccc12 [naftifine] |  |  |  |  | cross-resistance | 
10 | CC[C@H]1/C=C/C=C/C[C@@H](C)[C@H](O)[C@@](C)(O)C(=O)[C@@H](C)[C@H](O)[C@@H](C)C(=O)[C@@H](C)[C@H](O)[C@@H](C)/C=C/C(=O)O[C@@H]2[C@H](C)[C@H](CC1)O[C@]1(CC[C@H](C)[C@H](C[C@@H](C)O)O1)[C@H]2C [oligomycin] |  |  |  |  |  | sensitivity of parental strain AD1-8u^− in disk assay [2]: resistant
11 | Clc1ccc(COC(Cn2ccnc2)c2ccc(Cl)cc2Cl)c(Cl)c1 (centres unmarked) [miconazole] | resistances | resistances | detectable resistance | some resistance |  | 
12 | CC[C@H]1O[C@]2(C)[C@H](OC(C)=O)[C@@]1(C)O[C@@H](/C=C/C=C/C=C/c1oc(=O)cc(OC)c1C)[C@@H]2O [aurovertin B] |  |  |  |  |  | sensitivity of AD1002 ATPase/NTPase activity to inhibitor (Cdr1p ATPase; aurovertin B 20 μM): insensitive
13 | CN1CCN(CCCN2c3ccccc3Sc3ccc(C(F)(F)F)cc32)CC1 [trifluoperazine] |  |  |  |  | confers resistance to growth inhibition | 
14 | C/C=C/C/C=C/CCC(=O)[C@H]1O[C@H]1C(N)=O [cerulenin] |  |  | resistant | susceptible |  | 
15 | CO[C@@H]1C[C@@H](C[C@H]2CC[C@H](C)[C@H]([C@@H](C)C(=O)O)O2)O[C@]2(O[C@](C)([C@H]3CC[C@@](C)([C@@H]4O[C@@H]([C@H]5O[C@@](O)(CO)[C@H](C)C[C@@H]5C)C[C@@H]4C)O3)C[C@H]2C)[C@@H]1C [nigericin] |  |  |  |  | confers resistance to growth inhibition | 
16 | C[C@@H]1[C@H](O)[C@@H](C)/C=C/C=C/C=C/C=C/C=C/C=C/C=C/[C@H](O[C@@H]2O[C@H](C)[C@@H](O)[C@H](N)[C@@H]2O)C[C@@H]2O[C@](O)(C[C@@H](O)C[C@@H](O)[C@H](O)CC[C@@H](O)C[C@@H](O)CC(=O)O[C@H]1C)C[C@H](O)[C@H]2C(=O)O [amphotericin B] | sensitivities | sensitivities |  |  |  | resistance of AD1002 relative to parental strain in disk assay ([1]; listed as Amphotericin B): toxicity in yeast was not modified
17 | [O]=[V]([O-])([O-])[O-] [vanadate] |  |  |  |  |  | sensitivity of AD1002 ATPase/NTPase activity to inhibitor (Cdr1p ATPase; vanadate 100 μM): completely sensitive
18 | CC/C(=C(\c1ccccc1)c1ccc(OCCN(C)C)cc1)c1ccccc1 [tamoxifen] |  |  |  |  | confers resistance to growth inhibition | 
19 | C[C@@H]1[C@H](O)[C@@H](C)/C=C/C=C/CC/C=C/C=C/C=C/C=C/C(O[C@H]2O[C@H](C)[C@@H](O)[C@H](N)[C@@H]2O)CC2O[C@](O)(CC(O)C(O)CCC(O)CC(O)CC(O)CC(=O)O[C@H]1C)CC(O)C2C(=O)O (some centres unmarked) [nystatin] | sensitivities | sensitivities |  |  |  | 
